The values that follow are results of earlier work, collected in patent US20050244367A1 (priority 2004, published 2005).

This data set relates to PLA2. As to conditions: art-known PLA2 inhibitor classes, order of magnitude given in words.
On to `O=C(O)CC[C@@H](CSc1ccc(Cc2ccccc2)cc1)NC(=O)CCCCCCc1ccccc1`, for which the IC50 result is given as “sub μM range”.
For `CC(C)c1ccc2c(c1)CCC1C(C)(CNCCC(N)c3ccc(F)cc3)CCCC21C` (stereo not shown), the IC50 result is “μM range”.
On to `CCc1c(CC(N)=O)c2cc(OCCCP(=O)(O)O)ccc2n1Cc1ccccc1`, for which the IC50 entry is listed as “sub μM range”.
With `CCC(CCCCSc1ccc(C)cc1)c1ccc(F)cc1` (stereo not shown), the IC50 entry is given as “μM range”.
For the compound `CCN(CC)CCN(Cc1ccc(-c2ccc(C(F)(F)F)cc2)cc1)C(=O)Cn1cc(Cc2ccn(C)n2)c(=O)nc1SCc1ccc(F)cc1`, the IC50 entry is “nM or subnM range”.
On to `COC1=CCC2=C(CCC3C2CC[C@@]2(C)C3CC[C@@H]2N(C)CCCN(C)C)C1` (stereo partly shown), for which the IC50 result is on record as “sub μM range”.
Regarding `CC(C)c1ccc2c(c1)CCC1C(C)(CNCCC(=O)c3ccc(F)cc3)CCCC21C` (stereo not shown), the IC50 result is recorded as “μM range”.
